# Measured values reported in patent US20230203004A1, “RSV INHIBITING 3-SUBSTITUTED QUINOLINE AND CINNOLINE DERIVATIVES” (Janssen Sciences Ireland Unlimited Company, priority 2020, published 2023).
# Read-outs that look alike come from different tables or passages of the source.
# Key:
# rgRSV224 virus = test: Antiviral activity: rgRSV224 (GFP) replication in HeLa cells; format: cell-based, respiratory syncytial virus (RSV); conditions: averaged data of several repeat experiments
# Outline: (§1)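 Over 3 days at 37 °C, compound titrations (4-fold steps, nine dilutions) were tested on HeLa cells infected with rgRSV224 (MOI = 1), inhibition of GFP signal giving EC50. In parallel plates, ATP content of HeLa cells after 3-day exposure defined CC50.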
# [1] = Cytotoxicity in HeLa cells (ATP content, ATPlite kit); format: cell-based; conditions: human, TOX HELA CC50
# Outline: as §1
# [2] = human respiratory syncytial virus, HeLa, 72 h, read-out: RSV HELA EC50, HeLa cells, rgRSV224 MOI = 1, GFP expression three days post-virus exposure
SMILES,EC50 (rgRSV224 virus; [2]) [nM],CC50 at 3 days [1] [nM],"EC50 (rgRSV224 virus; read-out: RSV HELA EC50, HeLa cells, rgRSV224 MOI = 1, GFP expression three days post-virus exposure) [nM]"
"COc1cc(C(=O)NC[C@](O)(c2cc(C(C)(C)O)c(Cl)c(-c3ccc(F)cc3)n2)C(F)(F)F)cc2cc(C)nnc12 [compound 232, (-)-N-{2-[5-Chloro-6-(4-Fluorophenyl)-4-(2-Hydroxypropan-2-yl)Pyridin-2-yl]-3,3,3-Trifluoro-2-Hydroxypropyl}-8-Methoxy-3-Methylcinnoline-6-Carboxamide]",1.6,24000,
"COc1cc(C(=O)NC[C@](O)(c2cc(C(C)(C)O)c(F)c(-c3ccc(F)c(F)c3)n2)C(F)(F)F)cc2cc(C(F)F)cnc12 [compound 330, (-)(Difluoromethyl)-8-Methoxy-N-(3,3,3-Trifluoro-2-(5-Fluoro-6-(3,4-Difluorophenyl)-4-(2-Hydroxypropan-2-yl)Pyridin-2-yl)-2-Hydroxypropyl)Quinoline-6-Carboxamide]",10,13000,
"COc1cc(C(=O)NCC(O)(c2cc(C(C)(C)O)c(F)c(-c3ccc(F)cc3)n2)[C@@H]2CC2(F)F)cc2cc(C)nnc12 (stereo in doubt) [compound 320, N-((*S)-2,2-Difluorocyclopropyl)-2-(5-Fluoro-6-(4-Fluorophenyl)-4-Hydroxypropan-2-yl)Pyridin-2-yl)-2-Hydroxyethyl)-8-MZthoxy-3-Methylcinnoline-6-Carboxamide]",1,24000,
"Cc1cnc2c(OC3CC3)cc(C(=O)NC[C@](O)(c3cc(C(C)(C)O)c(Cl)c(-c4ccc(F)cc4)n3)C3CC3)cc2c1 [compound 222, (-)-A-{2-[5-Chloro-6-(4-Fluorophenyl)-4-(2-Hydroxypropan-2-yl)Pyridin-2-yl]-2-Cyclopropyl-2-Hydroxyethyl}-8-(Cyclopropyloxy)-3-Methylquinoline-6-Carboxamide]",1.5,27000,
"COc1cc(C(=O)NCC(O)(c2cc(C(C)(C)O)c(F)c(-c3ccc(F)cc3)n2)C(F)F)cc2cc(C)cnc12 (single isomer, unassigned; (+)) [compound 203, (+)-N-{3,3-Difluoro-2-[5-Fluoro-6-(4-Fluorophenyl)-4-(2-Hydroxypropan-2-yl)Pyridin-2-yl]-2-Hydroxypropyl}-8-Methoxy-3-Methylquinoline-6-Carboxamide]",,43000,480
"[2H]C([2H])([2H])Oc1cc(C(=O)NC[C@](O)(c2cc(C(C)(C)O)c(F)c(-c3ccc(F)cc3)n2)C2CC2)cc2cc(C3CC3)nnc12 [compound 289, (-)Cyclopropyl-N-(2-Cyclopropyl-2-(5-Fluoro-6-(4-Fluorophenyl)-4-(2-Hydroxypropan-2-yl)Pyridin-2-yl)-2-Hydroxyethyl)-8-(Methoxy-d3)Cinnoline-6-Carboxamide]",1.8,10000,
"COc1cc(C(=O)NC[C@](O)(c2cc(C(C)(C)O)c(F)c(-c3ccc(F)cc3)n2)C(C)C)cc2cc(C3CC3)nnc12 [compound 283, (-)Cyclopropyl-N-(2-(5-Fluoro-6-(4-Fluorophenyl)-4-(2-Hydroxypropan-2-yl)Pyridin-2-yl)-2-HydroxyMethylbutyl)-8-Methoxycinnoline-6-Carboxamide]",8.5,12000,
"Cc1cc2cc(C(=O)NC[C@](O)(c3cc(C(C)(C)O)c(F)c(-c4ccc(F)cc4)n3)C(F)(F)F)cc(OC3CC3)c2nn1 [compound 318, (-)Cyclopropoxy-3-Methyl-N-(3.3.3-Trifluoro-2-(5-Fluoro-6-(4-Fluorophenyl)-4-(2-Hydroxypropan-2-yl)Pyridin-2-yl)-2-Hydroxypropyl)Cinnoline-6-Carboxamide]",1.4,22000,
"COc1cc(C(=O)NC[C@](O)(c2cc(C(C)(C)O)c(F)c(-c3ccc(F)cc3)n2)C(F)(F)F)cc2cc(C3CC3)cnc12 [compound 321, (-)Cyclopropyl-8-Methoxy-N-(3,3,3-Trifluoro-2-(5-Fluoro-6-(4-Fluorophenyl)-4-(2-Hydroxypropan-2-yl)Pyridin-2-yl)-2-Hydroxypropyl)Quinoline-6-Carboxamide]",54,13000,
"[2H]C([2H])([2H])c1cc2cc(C(=O)NC[C@](O)(c3cc(C(C)(C)O)c(F)c(-c4ccc(F)cc4)n3)C(F)(F)F)cc(OC)c2nn1 [compound 311, (-)Methoxy-3-(Methyl-d3)-N-(3,3,3-Trifluoro-2-(5-Fluoro-6-(4-Fluorophenyl)-4-(2-Hydroxypropan-2-yl)Pyridin-2-yl)-2-Hydroxypropyl)Cinnoline-6-Carboxamide]",1.3,42000,
COc1cc(C(=O)NC[C@](O)(c2cc(C(C)(C)O)c(F)c(-c3ccc(F)cc3)n2)C2CC2)cc2cc(C(F)(F)F)nnc12 [compound 284],4.8,16000,
"COc1cc(C(=O)NC[C@](O)(c2cc(C(C)(C)O)c(F)c(-c3ccc(F)cc3)n2)C2CC2)cc2cc(C)c(F)nc12 [compound 216, (-)-N-{2-Cyclopropyl-2-[5-Fluoro-6-(4-Fluorophenyl)-4-(2-Hydroxypropan-2-yl)Pyridin-2-yl]-2-Hydroxyethyl}-2-Fluoro-8-Methoxy-3-Methylquinoline-6-Carboxamide]",0.62,21000,
"COc1cc(C(=O)NCC(O)(c2cc(C(C)(C)O)c(F)c(-c3cccc(F)c3)n2)C2CC2)cc2cc(C)nnc12 (single isomer, unassigned; (-)) [compound 255, (-)-N-{2-Cyclopropyl-2-[5-Fluoro-6-(3-Fluorophenyl)-4-(2-Hydroxypropan-2-yl)Pyridin-2-yl]-2-Hydroxyethyl}-8-Methoxy-3-Methylcinnoline-6-Carboxamide]",0.81,44000,
"COc1cc(C(=O)NC[C@](O)(c2nc(-c3ccc(F)cc3)c(F)c(C(C)(C)O)c2F)C(F)(F)F)cc2cc(C)cnc12 [compound 201, (-)-N-{2-[3,5-difluoro-6-(4-fluorophenyl)-4-(2-hydroxypropan-2-yl)pyridin-2-yl)-3,3,3-trifluoro-2-hydroxypropyl}-8-methoxy-3-methylquinoline-6-carboxamide]",2.6,43000,
"COc1cc(C(=O)NC[C@](O)(c2cc(C(C)(C)O)c(F)c(-c3ccc(C(F)(F)F)cc3)n2)C2CC2)cc2cc(C)c(F)nc12 [compound 217, N-[(-)Cyclopropyl{5-Fluoro-4-(2-Hydroxypropanyl)-6-[4-(Trifluoromethyl)Phenyl]-Pyridinyl}Hydroxyethyl]Fluoro-8-Methoxy-3-Methylquinoline-6-Carboxamide]",1.3,14000,
"COc1cc(C(=O)NC[C@](O)(c2cc(C(C)(C)O)c(F)c(-c3ccc(F)cc3)n2)C(F)F)cc2cc(C(F)F)nnc12 [compound 292, (-)-N-(3,3-difluoro-2-(5-fluoro-6-(4-fluorophenyl)-4-(2-hydroxypropan-2-yl)pyridin-2-yl)-2-hydroxypropyl)-3-(difluoromethyl)-8-methoxycinnoline-6-carboxamide]",12,29000,
"COc1cc(C(=O)NC[C@](O)(c2cc(C(C)(C)O)c(F)c(-c3ccc(F)cc3)n2)C2CC2(C)C)cc2cc(C)nnc12 (single isomer, unassigned) [compound 294, N-((-)(2,2-dimethylcyclopropyl)(5-fluoro-6-(4-fluorophenyl)-4-(2-hydroxypropanyl)pyndmyl)hydroxyethyl)-8-methoxy-3-methylcmnoline-6-carboxamide]",4.9,13000,
"COc1cc(C(=O)NC[C@](O)(c2cc(C(C)(C)O)c(Cl)c(-c3ccc(F)cc3)n2)C(F)(F)F)cc2cc(C)cnc12 [compound 200, (-)-N-{2-[5-Chloro-6-(4-Fluorophenyl)-4-(2-Hydroxypropan-2-yl)Pyridin-2-yl]-3,3,3-Trifluoro-2-Hydroxypropyl}-8-Methoxy-3-Methylquinoline-6-Carboxamide]",1.7,22000,
COc1cc(C(=O)NC[C@](O)(c2cc(C(C)(C)O)c(Cl)c(-c3ccc(F)cc3)n2)C2CC2)cc2cc(C)c(F)nc12 [compound 215],0.87,20000,
"COc1cc(C(=O)NC[C@](O)(c2cc(C(C)(C)O)c(F)c(-c3ccc(F)cc3)n2)C2C[C@@H]2F)cc2cc(C)nnc12 (single isomer, unassigned) [compound 302, N-((*S)(5-Fluoro-6-(4-Fluorophenyl)-4-(2-Hydroxypropanyl)Pyridinyl)((1*S.2*S)Fluorocyclopropyl)Hydroxyethyl)-8-Methoxy-3-Methylcinnoline-6-Carboxamide]",1.2,> 25000,
COc1cc(C(=O)NC[C@@](O)(c2cc(C(C)(C)O)c(F)c(-c3ccc(F)cc3)n2)C2(C)CC2)cc2cc(C)nnc12 [compound 299],93,12000,
"COc1cc(C(=O)NC[C@](O)(c2cc(C(C)(C)O)c(F)c(-c3ccc(F)cc3)n2)C(F)(F)F)cc2cc(C(F)F)cnc12 [compound 325, (-)(Difluoromethyl)-8-Methoxy-N-(3,3,3-Trifluoro-2-(5-Fluoro-6-(4-Fluorophenyl)-4-(2-Hydroxypropan-2-yl)Pyridin-2-yl)-2-Hydroxypropyl)Quinoline-6-Carboxamide]",3.6,13000,
COc1cc(C(=O)NC[C@](O)(c2cc(C(C)(C)O)c(F)c(-c3ccc(F)cc3)n2)C2(F)CC2)cc2cc(C)nnc12 [compound 296],2,56000,
"COc1cc(C(=O)NC[C@](O)(c2nc(-c3ccc(F)cc3)c(F)c(C(C)(C)O)c2F)C(F)(F)F)cc2cc(C)nnc12 [compound 240, (-)-N-{2-[3,5-Difluoro-6-(4-Fluorophenyl)-4-(2-Hydroxypropan-2-yl)Pyridin-2-yl]-3,3,3-Trifluoro-2-Hydroxypropyl}-8-Methoxy-3-Methylcinnoline-6-Carboxamide]",1.2,46000,
